From patent US12134601B2, “Compounds for inhibiting LY6K and methods of using same” (The Henry M. Jackson Foundation for the Advancement of …, priority 2017, dated 2024)

Legend:
[1] = molecular target: T1, human Ly6K protein (Homo sapiens, UniProt Q17RY6); test: Surface plasmon resonance binding to immobilized Ly6K (Biacore T100)
T1 construct: correspond to residues 18-138, which constitute the mature form of Ly6K; His tag (N); made in house; host or cells: E. coli BL21DE
T1 sequence (Q17RY6 18-138): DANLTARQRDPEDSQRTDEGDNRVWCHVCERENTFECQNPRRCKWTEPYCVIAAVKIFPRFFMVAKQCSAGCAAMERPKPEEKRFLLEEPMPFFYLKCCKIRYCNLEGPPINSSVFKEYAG
Experimental: (§1) FIG. 11: Small molecule binders of Ly6K. (A) Mature form of Ly6E, Ly6D and Ly6K were cloned in pET24a N-term His tag vector (Epoch Biosciences); expressed in BL21DE E. coli; purified recombinant protein was prepared using histidine column in using a batch purification method and eluted in 500 mM imidazole PBS, dialyzed in PBS. 5 μl of eluate was run on the 15% SDS-PAGE showing the purity with expected size protein of single band. (B) Structure of NSC243928. (G) Structure of NSC11150. (C-F; H-K) Representative surface plasmon resonance (SPR) sensorgrams show time on X-axis and SPR binding response on Y-axis. […] The corresponding data for NSC11150 are shown in corresponding lower panel.
We used surface plasmon resonance to identify small molecule binders of Ly6K. We screened a panel of 2000 small molecules, obtained from the Developmental Therapeutic Program (DTP, NCI). […] These five molecules were further tested for their ability to induce cell death, TGFβ1/Smad2/3 phosphorylation, IFNγ/Stat1 phosphorylation and PD-L1 protein expression. NSC243928 and NSC11150 were selected for further study on the basis of specificity and selectivity in bio-assays and structural flexibility, which allow future modifications required for in-depth studies (described in FIG. 11). The small molecule NSC243928 has been previously used in an in vivo anti-tumor screen by the NCI on a L1210 leukemia model in BDF1 syngeneic mice, a standard model used between 1955 and 1975. The average survival in this tumor model is 2-3 weeks. Treatment with NSC243928 increased survival benefit from 30% to 100% in a dose dependent manner. […] NSC11150 was not tested in in-vivo or in-vitro anti-tumor screens. […] As discussed infra, NSC243928 and NSC11150 inhibit TGFβ and PD-L1 pathways in a Ly6K dependent manner, indicating a mechanistic basic for the novel activities of these compounds (please see FIG. 11, 12). These experiments provide proof of the principle that small molecule targeting of Ly6K will have functional consequences and potentially lead to a better outcome in cancer treatment. […]

[2] = test system: 4T1 mammary tumor; test: 4T1 mammary tumor growth in syngeneic mouse model; format: in vivo, mice (Balb/c); conditions: 5 mg/kg/i.p. after tumor establishment at 50-70 mm^3
Description: FIG. 4: Ly6K is required for tumor growth in syngeneic mammary tumor models. (A) The qRT-PCR analysis using […] gene expression assay for mRNA levels in scrambled shRNA (Con) and Ly6K knockdown (Ly6K sh) cells. (B) The western blot analysis (cell signaling antibodies). (C) For 4T1 model, 20K cells/site in Balb/c mice and for E0771, 500K cells/site in C57BL/6 syngeneic mice were transplanted into lower mammary fat pad by subcutaneous injection (number of mice 10 per cell line pair). Tumor measurements were performed using a Vernier caliper. The tumor volumes were calculated using equation 1⁄2*length*(width*width). ** indicates p<0.001 and NS=non-significant (p>0.05) in a two tailed student T-test. FIG. 5: Effect of small molecules on in vivo tumor growth. (A) NCI data-Indicated doses of NSC243928 in saline were given by intraperitoneal route (i.p.) every day for 9 days to BIDF syngeneic mice carrying […] leukemia cells. Each group has 6 mice. Mouse were monitored for 30 days after drug treatment. […] The ** represents p<0.005 in a two tailed student T-test. Each group has 10 mice. We used surface plasmon resonance to identify small molecule binders of Ly6K. We screened a panel of 2000 small molecules, obtained from the Developmental Therapeutic Program (DTP, NCI). […]

[3] = Preliminary experiments for maximum tolerated dose; format: in vivo; conditions: 5 mg/kg/ip
[4] = molecular target: T2, Ly6D (Homo sapiens, UniProt Q14210); test: Surface plasmon resonance binding to Ly6D
T2 construct: Mature form of Ly6E, Ly6D and Ly6K were cloned in pET24a N-term His tag vector; His tag (N); made in house; host or cells: E. coli BL21DE
T2 sequence (Q14210 21-98 limits assumed): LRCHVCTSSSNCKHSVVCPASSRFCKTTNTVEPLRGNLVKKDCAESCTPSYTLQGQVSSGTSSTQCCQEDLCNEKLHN
Experimental: as §1
(§2) We performed a surface plasmon resonance assay using the Biacore T100 by immobilizing the purified human Ly6K protein on the surface of a CM5 chip and screening the binding with a small molecule library containing 2000 compounds (Developmental Therapeutics Program, NCI). An initial screening of molecules was performed at 1 or 10 μM compound, based on solubility. We used a model that compares the actual binding maximum (RUactual) with the theoretical binding maximum (RUtheor). […] Hits (RUactual to RUtheor of 0.7-2.0) were then reviewed by a team of medicinal chemists and those with structural potential were selected for further study. […]

[5] = test system: TGFβ1/Smad2/3 signaling; test: TGFβ1-induced Smad2/3 phosphorylation (western blot); format: cell-based, human; conditions: 2 μM drug, 30 minutes
Experimental: (§3) FIG. 12: Effect of small molecule binders of Ly6K. (A) Indicated cells were seeded and allowed to attach overnight, then treated with 2 μM drugs for 72 hours. Cell titer assay was performed to measure cell growth. (B) Cells were serum starved and treated with 100 ng/ml IFNγ with 2 μM drugs. PD-L1 was measure in live cells (using a zombie live-dead stain) as described in FIG. 3A. The graph was plotted from three experiments. (C, D) Indicated cells were allowed to attach, serum starved overnight and then treated with TGFβ (C) or IFNγ (D) in the presence of 2 μM drug for 30 minutes and western blot analysis was performed. The *** represents p<0.0005 and NS=non-significant in a two-tailed student T-test.
(§4) NSC243928 inhibited the TGFβ1 induced phosphorylation of Smad2/3; NSC11150 had no effect on TGFβ1/Smad2/3 signaling (FIG. 12C). NSC11150 inhibited IFNγ induced phosphorylation of Stat1; NSC243928 had no effect on IFNγ/Stat1 signaling (FIG. 12D).

[6] = molecular target: T3, Ly6E (Homo sapiens, UniProt Q16553); test: Surface plasmon resonance binding to Ly6E
T3 construct: Mature form of Ly6E, Ly6D and Ly6K were cloned in pET24a N-term His tag vector; His tag (N); made in house; host or cells: E. coli BL21DE
T3 sequence (Q16553 21-101 limits assumed): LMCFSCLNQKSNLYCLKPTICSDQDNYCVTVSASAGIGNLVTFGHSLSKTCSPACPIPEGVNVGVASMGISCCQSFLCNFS
Experimental: as §1, §2

[7] = test system: IFNγ/Stat1 signaling; test: IFNγ-induced Stat1 phosphorylation (western blot); format: cell-based, human; conditions: 2 μM drug, 30 minutes
Experimental: as §3, §4

[8] = test system: MDA-MB-231 cells (control and Ly6K knockdown); test: Cell titer assay of cell growth / cell death; format: cell-based, human; conditions: for Cell growth: 72 hours
Experimental: as §3, with “(A) Indicated cells were seeded and allowed to attach overnight, then treated with 2 μM drugs for 72 hours.” left out
as §4

[9] = test system: L1210 leukemia; conditions: up to 10 mg/kg/i.p.; cited from earlier work
[10] = test system: PD-L1; test: IFNγ-induced PD-L1 protein expression in live cells (flow cytometry); format: cell-based, human; conditions: control cells, 100 ng/ml IFNγ, 2 μM drug
Experimental: FIG. 3: Ly6K is required for IFNγ/PD-L1 pathway. (A) Indicated cells were serum starved prior to treatment with IFNγ 100 ng/ml overnight. Cells were labeled with anti-PD-L1 BV540 antibody or isotype control antibody prior to fixation to assess the cell surface expression of PD-L1 protein. Percentage of high PD-L1 cells were plotted in a bar graph from three different experiments and subjected to a two tailed student T-test, wherein p<0.05 is considered significant. (B) Western blotting analysis for indicated proteins. (C) Hypothesized effect of Ly6K on IFNγ/Stat1 pathway leading to increased PD-L1.
as §3, with “T-test. […]” for “T-test.”

| SMILES | SPR binding response to Ly6K [1] | 4T1 mammary tumor growth [2] | Therapeutic benefit [3] | Visible toxicity [3] | SPR binding response to Ly6D [4] | TGFβ1 induced phosphorylation of Smad2/3 [5] | SPR binding response to Ly6E [6] | IFNγ induced phosphorylation of Stat1 [7] | Cell growth ([8]; Ly6K knockdown MDA-MB-231 cells, 2 μM) | Cell growth ([8]; control MDA-MB-231 cells, 2 μM) | Toxicity [9] | PD-L1 protein expression [10] | Kd ([1]; SPR) [µM] | Effect on cell death ([8]; 2 μM) | Cell death ([8]; 100 μM, both control and Ly6K knockdown cells) |
| --- | --- | --- | --- | --- | --- | --- | --- | --- | --- | --- | --- | --- | --- | --- | --- |
| CCS(=O)(=O)Nc1ccc(Nc2c3ccccc3nc3ccccc23)c(OC)c1.CS(=O)(=O)O [NSC243928, 4′-(9-Acridinylamino)-3′-methoxyethanesulfonanilide methanesulfonate] | binding response in dose dependent manner | suppress 4T1 mammary tumor growth | therapeutic benefit | no visible toxicity | don't show binding response | inhibited | don't show binding response | had no effect | lost its activity | diminished the growth | not found to be toxic | did not show significant effect | – | – | – |
| Oc1ccc(Cc2ccc(Cl)cc2)c(O)c1 [NSC11150, 4-(4-chlorobenzyl)benzene-1,3-diol] | binding response in dose dependent manner | suppress 4T1 mammary tumor growth | therapeutic benefit | – | don't show binding response | had no effect | don't show binding response | inhibited | – | – | – | inhibition of PD-L1 expression | 1.6 | did not show significant effect | induced cell death |
